# In US20260345792A1, “PROTACs AND HyT-PD MOLECULES FOR TARGETED PROTEIN DEGRADATION OF DCAF15 AND THEIR USE IN THE TREATMENT OF AMYLOIDOSIS” (KRÆFTENS BEKÆMPELSE, priority 2023, published 2026):
# Where a SMILES comes first, the peptide text is derived from it. The star is where a group is joined. Cbz = O=C(OCc1ccccc1)*
# Tests used:
# HCT116 cells [1] = test: Clearance of protein aggregates: puromycin with Bafilomycin or MG132; assay type: cell-based; conditions: with 5 μg/ml puromycin 4 h; 200 nM Bafilomycin or 5 μM MG132
# Experimental: Cells were fixed and stained for ubiquitin and p62. A representative experiment is shown (n=3).
# HCT116 cells were treated with 5 μg/ml puromycin for 4 h alone or in combination with 200 nM Bafilomycin-1 or 5 μM MG132. Cells were fixed and stained for ubiquitin and p62. A representative experiment is shown (n=3) (see FIG. 3A). The double positive puncta per cell was quantified (see FIG. 3B).
# HCT116 cells; BE2C cells = test: Ubiquitin and p62 co-stained aggregates per cell after puromycin, by DCAF15 genotype; assay type: cell-based; conditions: 5 μg/ml puromycin, 4 h; DCAF15−/− vs WT and reconstituted cell lines
# Experimental: Cells were stained for ubiquitinated proteins and p62. Separate and merged channels from a representative experiment are shown (n>3).
# HCT116 cells with indicated genotypes were treated with 5 μg/ml puromycin for 4 h or left untreated (NT) before fixation. Cells were stained for ubiquitinated proteins and p62. Separate and merged channels from a representative experiment are shown (n>3) (see FIG. 1A). The number of ubiquitin and p62 co-stained aggregates per cell were quantified (see FIG. 1B.).
# BE2C cells with indicated genotypes were treated and analysed as above (n=3). Separate and merged channels from a representative experiment are shown (n>3) (see FIG. 1C). The number of ubiquitin and p62 co-stained aggregates per cell were quantified (see FIG. 1D.).
# Cell lines: WT (wild-type), DCAF15−/− (CRISPR-mediated stable DCAF15−/− knock-out cells), DCAF15−/−+WT 3xF (DCAF15−/− cells reconstituted with WT DCAF15 with 3×flag-tag).
# HCT116 cells [2] = test: Proliferation (confluency) and clonogenic survival after puromycin, by DCAF15 genotype; assay type: cell-based; conditions: 5 μg/ml puromycin 4 h
# Experimental: Confluency was recorded with imaging every 4 h. Representative experiments with technical triplicates are shown (n=3).
# HCT116 cells were treated with 5 μg/ml puromycin for 4 h or left untreated before being released into normal growth media for 72 h. Confluency was recorded with imaging every 4 h, representative experiments with technical triplicates (n=3) are shown (see FIG. 4A.). HCT116 cells were treated with 5 μg/ml puromycin for 4 h before release into full media or left untreated for 7 days before fixation and crystal violet staining (see FIG. 4B.). Quantification of FIG. 4B as integrated density per well (see FIG. 4C).
# DCAF15 = conditions: Han et al., 2017 and WO 2022/169755; cited from earlier work
# human cancer cell lines = conditions: cited from earlier work
Compound,aggregate numbers in WT and reconstituted cell lines (HCT116 cells [1]),re-appearance of aggregates in DCAF15−/− cells (HCT116 cells [1]),ligand for DCAF15 (DCAF15),further results
CO/C1=C\C(C)=C\[C@@H](C)[C@@H](O)[C@@H](C)C/C(C)=C/C=C/[C@H](OC)[C@@H]([C@@H](C)[C@@H](O)[C@H](C)[C@@]2(O)C[C@@H](O)[C@H](C)[C@@H](C(C)C)O2)OC1=O [Bafilomycin A1],enhance aggregate numbers in WT and reconstituted cell lines,we do not detect any re-appearance of aggregates in DCAF15−/− cells after treatments,,
CC(C)C[C@@H](C=O)NC(=O)[C@H](CC(C)C)NC(=O)[C@H](CC(C)C)NC(=O)OCc1ccccc1 [MG132] (Cbz-Leu-Leu-Leu-aldehyde),enhance aggregate numbers in WT and reconstituted cell lines,we do not detect any re-appearance of aggregates in DCAF15−/− cells after treatments,,
"COc1ccc(C[C@H](N)C(=O)N[C@H]2[C@@H](O)[C@H](n3cnc4c(N(C)C)ncnc43)O[C@@H]2CO)cc1 [Puromycin, puromycin]",,,,"protein aggregation (co-localization of ubiquitin and p62) (HCT116 cells; BE2C cells): significant reduction of aggregates in DCAF15−/− cells relative to WT and reconstituted cell lines; clonogenic survival, sensitivity of DCAF15−/− cells (HCT116 cells [2]; 7 days, crystal violet (FIGS. 4B and 4C)): insensitivity of DCAF15−/− cells to puromycin-induced toxicity; proliferation of DCAF15−/− cells (HCT116 cells [2]; release for 72 h (FIG. 4A)): DCAF15−/− cells remain undeterred by puromycin treatment; proliferation rates in WT and reconstituted cell lines (HCT116 cells [2]; release for 72 h (FIG. 4A)): significantly reduced proliferation rates"
NS(=O)(=O)c1ccc(S(=O)(=O)Nc2cccc3c(Cl)c[nH]c23)cc1 [indisulam],,,act as ligands for DCAF15,inhibition of proliferation (human cancer cell lines): inhibits the proliferation of certain human cancer cell lines
O=C(NS(=O)(=O)c1ccc(Br)s1)c1ccc(Cl)cc1Cl [tasisulam],,,act as ligands for DCAF15,
